Measured values from ChEMBL document CHEMBL5537186 (J Med Chem, 2024).
Values after ≈ are worked out from the molar mass of the structure shown.

Assays:
[1] = Metabolic stability in human hepatocytes assessed as compound remaining measured after 60 mins; assay type: ADME, cell-based, Hepatocyte; conditions: read-out: Stability
[2] = Lipophilicity, logD of compound at pH 7.4; assay type: physicochemical; conditions: buffer
[3] = Kinetic aqueous solubility of compound at pH 7.4; assay type: physicochemical; conditions: read-out: Kinetic_solubility
[4] = Kinetic aqueous solubility of compound at pH 4.5; assay type: physicochemical; conditions: read-out: Kinetic_solubility

Row | remaining at 1 h [1] | logD [2] | solubility kinetic [3] | solubility kinetic [4] | Compound
1 | 6% | 3.51 | 83 µM (≈ 41 µg/mL) | – | Cc1ccc(NC(=O)N2CC[C@H](C(F)(F)F)C2)cc1-c1cc(OCCO)nc(N2CCOCC2)c1
2 | 54% | – | 56 µM (≈ 28.6 µg/mL) | – | Cc1ccc(NC(=O)N2CCO[C@@H](C(F)(F)F)C2)cc1-c1cc(OCCO)nc(N2CCOCC2)c1
3 | 93% | 3.46 | 62 µM (≈ 31.7 µg/mL) | – | Cc1ccc(NC(=O)N2CCO[C@H](C(F)(F)F)C2)cc1-c1cc(OCCO)nc(N2CCOCC2)c1
4 | 19% | 3.73 | 39 µM (≈ 19.8 µg/mL) | 35 µM (≈ 17.8 µg/mL) | Cc1ccc(NC(=O)N2CC[C@@H](CC(F)(F)F)C2)cc1-c1cc(OCCO)nc(N2CCOCC2)c1
5 | 7% | 3.49 | 83 µM (≈ 41 µg/mL) | – | Cc1ccc(NC(=O)N2CC[C@@H](C(F)(F)F)C2)cc1-c1cc(OCCO)nc(N2CCOCC2)c1
